# From patent publication US9506068B2, “Pain treatment using ERK2 inhibitors” (Cornell University, priority 2008, dated 2016)
# “Also recorded” adds a separate entry of the source.
# Key:
# ERK1 [1] = test: Western blot of transfected HEK293 cells: ERK1; format: cell-based, human
# Excerpt: Separate cultures of an immortalized cell line of human embryonic kidney cells (HEK293) were transfected with three active siRNAs directed against human ERK2. […] The sequences of the three human ERK2 siRNAs (#1, #2, and #3) and the control mismatch siRNA are shown below. The siRNAs were expressed from the rAAV vector. Thus, to generate the siRNA #1, the DNA sequence of the sense strand […] NO:777) was linked to a spacer derived from an miRNA […] ID NO:766) at the 3' end, which was then linked to the corresponding antisense sequence […] NO:778)). Thus, the non-template strand sequence used in the expression cassette for the […] NO:777) siRNA will have the following sequence (SEQ ID NO:779)): [NT] This sequence was placed downstream of an RNA polymerase III (RNA pol III) promoter in the rAAV vector. The vector also contained 6 consecutive dTs in the non-template strand following the SEQ ID NO:779 sequence to stop the transcription.
# C57BL/6 mice [2] = test: Acute thermal paw withdrawal threshold; format: in vivo, mouse; settings: before vs. at least 3 weeks after vector administration, no CFA
# Experimental: Thermal paw withdrawal threshold was assessed using a thermal nociceptive stimulus apparatus (Hargreaves et al., 1988). Prior to the test, the animals were allowed to acclimate for 30 min to the test chamber on a pre-heated glass plate maintained at 30° C. A radiant thermal stimulus (5.10 amps) was applied to the mid-plantar surface of the hind paw through the glass plate. The latency, in seconds, for the withdrawal of the paw from the heat source was determined automatically. If no response was elicited, the heat source was automatically shut off at 20 sec to prevent tissue injury. A minimum break of 5 min was allowed between each trial. Three to six trials were performed for each paw.
# [3] = system: spinal cord dorsal horn (SCDH); test: GFP immunolabeling after rAAV vector injection (extent and cell type of transduction); format: in vivo, mouse; settings: confocal fluorescent immunohistochemistry; NeuN, GFAP, OX42 markers
# Experimental: (§1) The viral vectors, ERK2-5, 2-7, 2-8 and MM were micro-injected into the spinal cord dorsal horn (SCDH) as described by South et al. (South et al., 2003). The mice were anesthetized with ketamine/xylazine. A laminectomy was performed to remove part of the dorsal L2 and L3 spinous process and the lumbar area of spinal cord was exposed for intraparenchymal injection (IPI). Three unilateral injections of 1 μl (1-3×10^9 viral particles/μl) were administered 0.5-0.7 mm apart, at a depth of 0.3 mm from the dorsal border and 0.5 mm from the midline, using a glass pipette with a 40-μm-diameter tip attached to a 5 μl Hamilton syringe. The syringe was mounted on a microinjector (David Kopf Instruments, Tujunga, Calif.) attached to a stereotaxic unit (David Kopf Instruments). After the injection, the overlying muscles were closed with 5-0 chromic gut and the skins were closed with wound clips. Animals were allowed to recover for three weeks before undergoing behavioral tests, or sacrificed for histological and Western blot analysis.
# (§2) Fluorescent IHC images were captured by a Zeiss LSM 510 laser scanning confocal microscope. […] Quantitative analysis was performed by a blinded observer using Metamorph software (Universal Imaging, Downingtown, Pa.) as described previously (Garraway et al., 2007). […]
# C57BL/6 mice [4] = test: Motor function tests (surface righting, placing/stepping, grasping/climbing); format: in vivo, mouse; settings: after intraparenchymal injection of vector
# Experimental: All behavioral testing was conducted in groups of 10 mice per treatment by a blinded observer. Motor function tests were performed before mechanical stimulus threshold or thermal paw withdrawal threshold were measured (Garraway et al., 2007). No deficits in reflexes for surface righting, placing/stepping and grasping/climbing were found in animals treated with either the control rAAV vector or rAAV viral vectors.
# ERK1 [5] = test: Western blot of spinal cord dorsal horn: ERK1 and pERK1; format: in vivo, mouse; settings: compared to animals that did not receive intraparenchymal injection of a vector
# Experimental: (§3) The viral vectors, ERK2-5, 2-7, 2-8 and MM were micro-injected into the spinal cord dorsal horn (SCDH) as described by South et al. (South et al., 2003). The mice were anesthetized with ketamine/xylazine. A laminectomy was performed to remove part of the dorsal L2 and L3 spinous process and the lumbar area of spinal cord was exposed for intraparenchymal injection (IPI). Three unilateral injections of 1 μl (1-3×10^9 viral particles/μl) were administered 0.5-0.7 mm apart, at a depth of 0.3 mm from the dorsal border and 0.5 mm from the midline, using a glass pipette with a 40-μm-diameter tip attached to a 5 μl Hamilton syringe. […]
# (§4) Animals were deeply anesthetized by isoflurane, decapitated and the lumbar spinal cord dorsal horn at the level of L4-L6 were rapidly dissected. […] The protein level of each sample was measured by the BioRad DC assay. […]
# (§5) Membranes were incubated with rabbit anti-pERK1/2 antibody (1:1000; 07-362; Cell Signaling Technology, Inc.) in blocking solution overnight at 4° C., washed in TBS with 0.1% Tween-20 (TBST), then incubated with HRP-conjugated anti-rabbit IgG (1:1000, Pierce Biotechnology, Inc., Rockford, Ill.) in blocking solution for 1 hr. […] Ratios of intensity of pERK1/2 or ERK1/2 to β-actin were calculated, normalized to the control samples and subject to statistical analysis. […]
# [6] = system: fusion mRNA of the ERK2 and the humanized Renilla luciferase (hRluc) gene; test: psiCHECK Dual Luciferase Reporter Assay; format: cell-based, mouse; settings: HEK 293 cells cotransfected with psiCHECK plasmid and rAAV plasmid; normalized to 100% of rAAV plasmid lacking shRNA (GFP); n=4
# Excerpt: FIGS. 1A-J illustrate expression of green fluorescent protein (GFP) and the knockdown of ERK2 mRNA in the mouse spinal cord dorsal horn (SCDH) at 3 weeks after the intraparenchymal injection of a neurotropic recombinant adeno-associated virus (rAAV) vector expressing ERK2 siRNA. […] Thus, the expression of GFP was not influenced by co-expression of the ERK2 siRNAs. […] Scale bar, 500 μm. In FIG. 1I, ERK2 mRNA expression was quantified from in situ images and plotted in the bar graph as the ratio of the integrated optical density of in situ labeling in the ipsilateral SCDH to that in the contralateral SCDH. Data are the mean±SEM (n=3). […] There was no significant difference in the ratio among the three active siRNA vectors. […] HEK 293 cells were cotransfected with the psiCHECK plasmid (which contains the ERK2-Renilla luciferase fusion gene and the firefly luciferase gene) and with a rAAV plasmid expressing a candidate ERK2 shRNA sequence. rAAV plasmids that yield active siRNAs reduce the expression of Renilla luciferase relative to firefly luciferase, leading to a reduction of the activity ratio. The assay results are the mean±SEM (n=4). The Renilla/firefly signal was normalized to a value of 100% from the results of a concurrent assay containing psiCHECK and a rAAV plasmid that lacked coding for a shRNA sequence (GFP). […]
# C57BL/6 mice [7] = test: Acute mechanical stimulus threshold (von Frey); format: in vivo, mouse; settings: before vs. at least 3 weeks after vector administration, no CFA
# Experimental: Mechanical stimulus threshold to a non-noxious mechanical stimulus was determined by paw withdrawal to the application of a series of calibrated von Frey filaments to the surface of the hind paws. The animals were placed in a Plexiglas cage with mesh flooring suspended above the researcher and left to acclimate for 30 min. von Frey filaments were applied perpendicularly against the mid-plantar surface of the foot. The “up-down” method of Dixon (Chaplan et al., 1994) was used to determine the value at which paw withdrawal occurred 50% of the time, interpreted as the mechanical threshold.
# [8] = system: spinal cord dorsal horn (SCDH); settings: mouse, in vivo
# Experimental: Mice were anesthetized with pentobarbital and then perfused transcardially with 4% paraformaldehyde (PFA) in phosphate buffered saline (PBS) with 1 mM NaF. Fifty mL of fixative was perfused over 5 min by using a peristaltic pump. The spinal cord was dissected and placed in 4% PFA for 1 hr before being transferred to 30% sucrose for cryoprotection for 72 hr. Lumbar spinal cord cryosections of 20-μm thick were obtained from a cryostat (Leica, Bannockburn, Ill.) for IHC and in situ hybridization.
# For IHC, the spinal cord sections were incubated in blocking solution (3% normal goat serum, 0.1% Triton X-100 in Tris buffered saline) for 30 min. After washing in Tris buffered saline (TBS), sections were incubated with one or two of the following primary antibodies: rabbit anti-GFP (1:1000; Invitrogen-Molecular Probes Inc, Eugene, Oreg.), rabbit anti-phospho-ERK1/2 (1:1000; Cell Signaling Technology, Inc., Danvers, Mass.), mouse anti-NeuN (1:400; Millipore-Chemicon, Bedford, Mass.), rabbit anti-c-fos (1:2000, Santa Cruz Biotechnology, Santa Cruz, Calif.), rabbit anti-Dynorphin A(1:2000, Bachem, San Carlos, Calif.), mouse anti-GFAP (1:2000; Millipore-Chemicon) and rat anti-OX42 (1:1000, BD Biosciences, San Diego, Calif.) overnight in blocking solution at 4° C. […]
# ERK2 = test: Western blot of spinal cord dorsal horn: ERK2 and pERK2; format: in vivo, mouse; settings: compared to animals that did not receive intraparenchymal injection of a vector
# Experimental: as §3, §4, §5
# ERK2 mRNA = test: Non-radioactive in situ hybridization of ERK2 mRNA in spinal cord dorsal horn after intraparenchymal vector injection; format: in vivo, mouse; settings: 3 weeks after intraparenchymal injection; ipsilateral vs contralateral; listed as MM
# Experimental: as §1, with “Animals were allowed to recover for three weeks before undergoing behavioral tests, or sacrificed for histological and Western blot analysis.” left out
# ERK2 mRNA expression in the SCDH was detected by non-radioactive in situ hybridization as described by (Garraway et al., 2007). […]
# as §2
substance,measurement,setting,value
"siRNA #2: human ERK2 siRNA (884-902) GCUGCAUUCUGGCAGAAAUUU, expressed from the rAAV vector",ERK1 expression,ERK1 [1],without significantly changing
"siRNA #3: human ERK2 siRNA (357-375) GUGCUCUGCUUAUGAUAAUUU, expressed from the rAAV vector",ERK1 expression,ERK1 [1],without significantly changing
mm: inactive control mismatch siRNA CCUCGUCAUAAUACUGGGUUU used in HEK293 cells (chemistry not given here),heat withdrawal latency,C57BL/6 mice [2],No change
same,cellular localization of GFP immunolabeling,[3],colocalized with NeuN
same,animals with signs of motor deficits,C57BL/6 mice [4],None
same,expression or phosphorylation of ERK1,ERK1 [5],did not have any effect
same,Renilla/firefly luciferase activity ratio,[6],ineffective
same,mechanical withdrawal threshold,C57BL/6 mice [7],No change
same,gliosis in the spinal cord dorsal horn,[8],no evidence of gliosis
same,neuronal cell loss,[8],no evidence of neuronal cell loss
same,expression or phosphorylation of ERK2,ERK2,did not have any effect
same,ERK2 mRNA level in the ipsilateral SCDH (in situ hybridization),ERK2 mRNA,did not alter; also recorded: no change
"siRNA #1: human ERK2 siRNA (1833-1851) GCAGGAGCUUGUGGAAAUAUU, expressed from the rAAV vector",ERK1 expression,ERK1 [1],without significantly changing
